Patent publication US20150352040A1 (priority 2010, published 2015)
Like-named read-outs stand apart in the source and are kept apart here.

What was measured:
[1] = in comparison to a 15 mg dose of hydrocodone
Text: In certain preferred embodiments, the opioid agonist is hydrocodone.

[2] = milligram-for-milligram basis; cited from earlier work
human patients [3] = tested on: human patients
[4] = TRNA therapy with topical apomorphine, onset of clinical effect; type: in vivo, human
human patients [5] = assay: Efficacy of topical opioid analgesic formulations in human patients (Example 6); type: in vivo
Text: The efficacy of topical opioid analgesic formulations was studied in human patients.

patients [6] = assay: Compounded topical morphine sulfate and tramadol, inventor's clinical experience (nuchal and peripheral application); conditions: patients tapering off oral narcotics, nuchal delivery as only pain therapy
Procedure: The dose for MS has been 2.5-5.0 mg and for tramadol, 40-80 mg, divided over two to three locations, as described herein.
With activation of opioid receptors potentially providing improved pain relief, MS and tramadol were compounded for topical administration.

[7] = compounded morphine in cold cream applied locally to skin at areas of pain; cited from earlier work
patient = conditions: 1 mg twice daily
[8] = cited from earlier work
patients [9] = conditions: cited from earlier work
[10] = case 4, acute lumbar sprain, 1.0 mg application
[11] = Patient C, 40 mg topical divided between knee and lower back
[12] = Patient E, 40 mg topical to neck and back in divided dose
[13] = Patient F, 40 mg topical to nuchal region and lower back in divided doses
[14] = Patient H, 40 mg topical in 1 ml Lipoderm

Compound: COc1ccc2c3c1O[C@H]1[C@@H](O)C=C[C@H]4[C@@H](C2)N(C)CC[C@@]341 [Codeine]
- Calculated Dose (mg), equianalgesic [1]: 90.0 mg

Compound: CC(=O)Oc1ccc2c3c1O[C@H]1[C@@H](OC(C)=O)C=C[C@H]4[C@@H](C2)N(C)CC[C@@]341 [Heroin, diacetylmorphine]
- potency relative to morphine [2]: 1.5-2 times

Compound: COc1ccc2c3c1O[C@H]1C(=O)CC[C@H]4[C@@H](C2)N(C)CC[C@]314 [Hydrocodone]
- Calculated Dose (mg), equianalgesic [1]: 15.0 mg

Compound: CN1CC[C@]23CCCC[C@H]2[C@H]1Cc1ccc(O)cc13 [Levorphanol]
- Calculated Dose (mg), equianalgesic [1]: 1.8 mg

Compound: CCC(=O)C(CC(C)N(C)C)(c1ccccc1)c1ccccc1 (stereo not drawn) [Methadone]
- Calculated Dose (mg), equianalgesic [1]: 9.0 mg

Compound: COc1ccc2c3c1O[C@H]1C(=O)CC[C@@]4(O)[C@@H](C2)N(C)CC[C@]314 [Oxycodone]
- Calculated Dose (mg), equianalgesic [1]: 13.5 mg

Compound: CN1CCc2cccc3c2[C@H]1Cc1ccc(O)c(O)c1-3 [apomorphine]
- time to pain relief, all patients (human patients [3]; Example 3, cream of Example 1 over nerve entrapment areas or affected muscle): 5 to 10 min
- outcome, carpal tunnel syndrome (human patients [3]; case 1, pregnant person, 0.5 mg at the wrist): without recurrent symptoms
- pain relief (human patients [3]; case 2, additional 0.5 mg after 24 hours): complete pain relief
- pain relief (human patients [3]; case 2, tarsal tunnel syndrome/plantar fasciitis, runner, 0.5 mg application): 90%
- outcome, pain (human patients [3]; case 3, hamstring injury, 0.5 mg): complete resolution of pain without recurrence
- time to resolution of pain (human patients [3]; case 3, hamstring injury, 0.5 mg to muscle and insertion site): 5 to 10 min
- pain and spasm relief (human patients [3]; case 4 (person one), acute lumbar sprain, 1.0 mg application): 80-90%
- duration of relief (human patients [3]; [10]): lasted overnight
- time to pain and spasm relief (human patients [3]; [10]): 10 to 15 min
- outcome, acute lumbar sprain from lifting (human patients [3]; case 5, 0.5 mg application and heating pad): without recurrent symptoms
- outcome, foot pain from stress fractures and tarsal tunnel (human patients [3]; case 6, marathon runner, 0.5 mg to base of toe and 0.5 to tarsal tunnel): experienced pain relief
- tolerability of increased single dose (human patients [3]; single topical dose increased to 2 mg, peripheral application): without deleterious effects
- onset of clinical effect [4]: 10 to 15 min

Compound: CN1CC[C@]23c4c5ccc(O)c4O[C@H]2[C@@H](O)C=C[C@H]3[C@H]1C5.O=S(=O)(O)O [morphine sulfate]
- further reduction in pain from baseline (human patients [5]; Patient G, 3 mg topical in Pass-gel to the nuchal region, on oral oxycodone): 20-30%
- reduction in baseline back and hip pain (human patients [5]; Patient I, topical 2.5 mg in 0.5 ml Pass-gel, despite regular narcotics): 15-20%
- time to reduction in pain (human patients [5]; Patient K, topical 2.5 mg to the nuchal region): 10 to 15 min
- headache and neck pain after treatment (human patients [5]; Patient K, topical 2.5 mg to the nuchal region, from "severe"): 0-1 of 10
- time to reduction in pain (human patients [5]; Patient L, topical 2.5 mg to the nuchal region): 8 to 10 min
- pain after treatment (human patients [5]; Patient L, topical 2.5 mg to the nuchal region, from about 8 of 10): about 4 of 10
- narcotic withdrawal symptoms (patients [6]): no significant narcotic withdrawal symptoms

Compound: CN1CC[C@]23c4c5ccc(O)c4O[C@H]2[C@@H](O)C=C[C@H]3[C@H]1C5 [morphine]
- additional pain relief (human patients [5]; Patient D, topical 2.5 mg in 0.5 ml Pass-gel, despite regular hydromorphone): 20-30%
- morphine levels in blood or urine [7]: not detected

Compound: Clc1ccc2nsnc2c1NC1=NCCN1 [tizanidine]
- state of spastic upper extremity (patient; after a few months of continued therapy): essentially back to normal
- state of spastic upper extremity (patient; within several weeks): visible improvement
- absorption after oral administration [8]: completely absorbed

Compound: COc1cccc(C2(O)CCCCC2CN(C)C)c1 (stereo not drawn) [tramadol]
- pain relief (human patients [5]; Patient A, topical in Lipoderm, 40 mg tramadol hydrochloride dose twice daily, nuchal region and back): Pain relief is achieved
- pain in the neck after treatment (human patients [5]; Patient B, 15 minutes after 20 mg topical to nuchal region and lower back, baseline about 7-8/10): about 0 /10
- pain in the back and legs after treatment (human patients [5]; Patient B, 15 minutes after 20 mg topical to nuchal region and lower back, baseline about 7/10): about 2 /10
- benefit of oral tablets in the past (human patients [5]; Patient B, tramadol (Ultram) tablets): without significant benefit
- eventual pain relief (human patients [5]; [11]): 80-90%
- time to initial reduction in pain (human patients [5]; [11]): ≤ 15 min
- initial reduction in pain (human patients [5]; Patient C, right knee pain, 40 mg topical divided between knee (popliteal fossa) and lower back): ~50%
- outcome (human patients [5]; Patient D, 40 mg topical at the nuchal region): with benefit
- reduction in pain (human patients [5]; [12]): 70-80%
- time to reduction in pain (human patients [5]; [12]): 10 to 15 min
- pain relief (human patients [5]; [13]): ≥ 70%
- time to pain relief (human patients [5]; [13]): ≤ 15 min
- duration of pain relief (human patients [5]; [14]): ~48 h
- time to pain relief (human patients [5]; [14]): ≤ 15 min
- pain relief (human patients [5]; Patient H, 40 mg topical in 1 ml Lipoderm to neck and back in divided doses): greater than 80%
- outcome, pain (trigeminal neuralgia and cervical sprain) (human patients [5]; Patient J, topical 40 mg in 1 ml Lipoderm to the nuchal region): dramatic improvement in pain
- narcotic withdrawal symptoms (patients [6]): no significant narcotic withdrawal symptoms
- onset of withdrawal after the last dose (patients [9]; in most cases): 12 to 20 h
- duration of acute withdrawal symptoms (patients [9]; versus three or four days for other codeine analogues): seven days or more

Compound: Meperidine
- Calculated Dose (mg), equianalgesic [1]: 135.0 mg
